IC50 data for 74 compounds are collected here from patent publication US8835472B2, “Compounds, pharmaceutical compositions and uses thereof” (Boehringer Ingelheim International GmbH, priority 2010, dated 2014).

Sequence of human ACC2 (O00763 129-2458): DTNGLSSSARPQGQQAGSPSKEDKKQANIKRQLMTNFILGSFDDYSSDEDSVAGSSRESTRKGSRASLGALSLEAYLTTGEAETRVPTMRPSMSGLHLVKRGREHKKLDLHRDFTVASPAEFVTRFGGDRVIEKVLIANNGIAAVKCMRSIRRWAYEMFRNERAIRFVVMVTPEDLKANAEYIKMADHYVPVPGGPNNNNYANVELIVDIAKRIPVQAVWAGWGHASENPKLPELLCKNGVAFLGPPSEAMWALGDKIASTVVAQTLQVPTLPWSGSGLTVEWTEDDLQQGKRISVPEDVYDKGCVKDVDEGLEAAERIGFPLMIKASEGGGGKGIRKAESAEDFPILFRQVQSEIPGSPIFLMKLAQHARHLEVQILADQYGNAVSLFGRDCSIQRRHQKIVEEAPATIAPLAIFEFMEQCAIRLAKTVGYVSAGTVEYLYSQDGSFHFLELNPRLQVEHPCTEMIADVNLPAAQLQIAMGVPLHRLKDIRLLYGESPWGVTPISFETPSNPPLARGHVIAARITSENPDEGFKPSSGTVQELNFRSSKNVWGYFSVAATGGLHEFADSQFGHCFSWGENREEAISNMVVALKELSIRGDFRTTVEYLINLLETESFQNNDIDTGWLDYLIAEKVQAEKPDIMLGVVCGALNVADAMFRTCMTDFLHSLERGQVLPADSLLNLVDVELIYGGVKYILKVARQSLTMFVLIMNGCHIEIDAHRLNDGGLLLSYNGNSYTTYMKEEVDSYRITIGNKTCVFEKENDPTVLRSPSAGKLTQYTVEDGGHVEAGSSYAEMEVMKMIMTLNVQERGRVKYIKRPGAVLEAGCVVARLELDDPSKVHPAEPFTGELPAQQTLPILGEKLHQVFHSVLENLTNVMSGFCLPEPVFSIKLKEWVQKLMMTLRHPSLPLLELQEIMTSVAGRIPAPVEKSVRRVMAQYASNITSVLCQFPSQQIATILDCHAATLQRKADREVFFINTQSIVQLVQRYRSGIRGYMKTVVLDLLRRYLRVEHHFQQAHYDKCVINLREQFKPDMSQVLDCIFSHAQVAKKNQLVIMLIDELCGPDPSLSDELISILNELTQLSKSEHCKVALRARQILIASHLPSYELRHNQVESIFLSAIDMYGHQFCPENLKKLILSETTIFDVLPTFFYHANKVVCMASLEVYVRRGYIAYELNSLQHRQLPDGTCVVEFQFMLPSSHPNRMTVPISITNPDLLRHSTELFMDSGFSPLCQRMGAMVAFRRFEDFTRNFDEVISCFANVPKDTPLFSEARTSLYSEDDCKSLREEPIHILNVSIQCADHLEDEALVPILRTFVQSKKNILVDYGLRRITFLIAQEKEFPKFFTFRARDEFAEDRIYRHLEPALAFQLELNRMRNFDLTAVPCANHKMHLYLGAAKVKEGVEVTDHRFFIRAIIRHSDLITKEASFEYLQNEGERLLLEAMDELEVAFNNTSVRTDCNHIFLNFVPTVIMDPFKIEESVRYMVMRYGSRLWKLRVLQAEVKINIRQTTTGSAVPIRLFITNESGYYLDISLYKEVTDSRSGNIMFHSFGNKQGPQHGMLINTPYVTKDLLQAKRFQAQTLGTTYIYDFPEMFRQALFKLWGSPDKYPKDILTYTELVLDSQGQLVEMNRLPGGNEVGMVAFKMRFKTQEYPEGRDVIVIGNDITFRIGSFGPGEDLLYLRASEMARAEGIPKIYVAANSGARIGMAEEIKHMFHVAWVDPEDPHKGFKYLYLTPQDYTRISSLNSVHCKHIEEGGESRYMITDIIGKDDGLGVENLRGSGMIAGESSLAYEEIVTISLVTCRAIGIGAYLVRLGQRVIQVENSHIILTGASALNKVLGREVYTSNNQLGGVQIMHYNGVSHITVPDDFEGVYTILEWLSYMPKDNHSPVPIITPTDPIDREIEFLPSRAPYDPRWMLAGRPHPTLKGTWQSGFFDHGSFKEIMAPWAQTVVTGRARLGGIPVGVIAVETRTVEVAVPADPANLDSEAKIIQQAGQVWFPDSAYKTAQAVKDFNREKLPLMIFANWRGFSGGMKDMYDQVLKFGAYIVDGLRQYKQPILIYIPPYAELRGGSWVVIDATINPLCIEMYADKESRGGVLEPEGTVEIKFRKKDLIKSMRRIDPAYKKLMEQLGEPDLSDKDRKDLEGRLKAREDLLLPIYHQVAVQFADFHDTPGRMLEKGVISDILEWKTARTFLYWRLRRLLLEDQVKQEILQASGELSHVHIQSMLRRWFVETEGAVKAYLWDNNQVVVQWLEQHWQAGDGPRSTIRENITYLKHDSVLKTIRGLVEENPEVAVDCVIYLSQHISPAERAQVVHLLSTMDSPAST

This experiment concerns the target human ACC2 (Homo sapiens (Human), UniProt O00763). Briefly: ACC2 assay, spectrophotometric 384 well assay (NADH-linked, coupled lactate dehydrogenase/pyruvate kinase reaction). As to conditions: hACC2 construct lacking the 128 N-terminal amino acids; 25° C., 340 nm over 15 minutes. In kind it is biochemical. In short, it runs like this: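 Kinetic NADH-linked assay (pyruvate kinase/lactate dehydrogenase coupling) with baculovirus-expressed hACC2 missing its first 128 amino acids. Started with 500 μM ATP and 200 μM each NADH and acetyl-CoA; slope followed 15 min at 25 °C, pH 7.5. No-acetyl-CoA wells define 0%; IC50 by nonlinear regression.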
The compound `CC(=O)NC(C)Cc1ccc(C#Cc2cccc(C(=O)N3CCC(c4ccncc4)C3)c2)cc1` (centres unmarked) [Example 8.31] came in with an IC50 of 14500 nM.
`CC(=O)NC(C)Cc1ccc(C#Cc2cccc(C(=O)N3CCCCC3)c2)cc1` (centres unmarked) [Example 8.32] came in with an IC50 of 2100 nM.
As for `CC(=O)NC(C)Cc1ccc(C#Cc2cccc(C(=O)N(C)C3CCCC3)c2)cc1` (centres unmarked) [Example 8.33], inhibition was half-maximal at 2000 nM (IC50).
The same measure for `CC(=O)NC(C)Cc1ccc(C#Cc2cccc(C(=O)NC3CCC3)c2)cc1` (centres unmarked) [Example 8.34]: 1200 nM.
`CCC(C)NC(=O)c1cccc(C#Cc2ccc(CC(C)NC(C)=O)cc2)c1` (centres unmarked) [Example 8.35] came in with an IC50 of 2400 nM.
In turn, `CC(=O)NC(C)Cc1ccc(C#Cc2cccc(C(=O)N3CCC(C)(C)CC3)c2)cc1` (centres unmarked) [Example 8.37] had an IC50 of 1600 nM.
Then `CCNC(=O)c1cccc(C#Cc2ccc(CC(C)NC(C)=O)cc2)c1` (centres unmarked) [Example 8.38], with 14300 nM; and `CC(=O)NC(C)Cc1ccc(C#Cc2cccc(C(=O)N(C)Cc3ccncc3)c2)cc1` (centres unmarked) [Example 8.39], with 13400 nM; and `CC(=O)NC(C)Cc1ccc(C#Cc2cccc(C(=O)N(C)c3ccccc3)c2)cc1` (centres unmarked) [Example 8.40], with 6700 nM.
The same measure for `CC(=O)NC(C)Cc1ccc(C#Cc2cccc(C(=O)NC(C)c3ccccc3)c2)cc1` (centres unmarked) [Example 8.41]: 23300 nM; for `CC(=O)NC(C)Cc1ccc(C#Cc2cccc(C(=O)N3Cc4ccccc4C3)c2)cc1` (centres unmarked) [Example 8.42]: 30000 nM; for `CC(=O)NC(C)Cc1ccc(C#Cc2ccc(C(=O)N(C)C)cc2)cc1` (centres unmarked) [Example 8.43]: 3900 nM.
For the compound `CNC(=O)c1ccc(C#Cc2ccc(CC(C)NC(C)=O)cc2)cc1` (centres unmarked) [Example 8.44], 22100 nM corresponded to half-maximal inhibition (IC50).
Regarding `CC(=O)NC(C)Cc1ccc(C#Cc2ccc(C(=O)N3CCCC3)cc2)cc1` (centres unmarked) [Example 8.45], the IC50 was determined as 1400 nM.
Then `CC(=O)NC(C)Cc1ccc(C#Cc2ccc(C(=O)N3CCN(C)CC3)cc2)cc1` (centres unmarked) [Example 8.46], with 11300 nM; and `CC(=O)NC(C)Cc1ccc(C#Cc2cccc(C(=O)N(C)CC(=O)OC(C)(C)C)c2)cc1` (centres unmarked) [Example 8.47], with 12100 nM; and `CC(=O)NC(C)Cc1ccc(C#Cc2cccc(C(=O)N3CCCC3)c2)cc1` (centres unmarked) [Example 8.48], with 6200 nM.
The same measure for `CC(=O)NC(C)Cc1ccc(C#Cc2cccc(C(=O)N3CCC(C(=O)OC(C)(C)C)C3)c2)cc1` (centres unmarked) [Example 8.49]: 22000 nM; for `CC(=O)NC(C)Cc1ccc(C#Cc2cccc(C(=O)N3CCc4ccccc4C3)c2)cc1` (centres unmarked) [Example 8.51]: 30000 nM.
Then `CC(=O)NC(C)Cc1ccc(C#Cc2cccc(C(=O)N3CCN(C)CC3)c2)cc1` (centres unmarked) [Example 8.54], with 25100 nM; and `CCC(CC)Oc1ccc(C#Cc2ccc(CC(C)NC(C)=O)cc2)cc1` (centres unmarked) [Example 9.1, N-(1-(4-((4-(pentan-3yloxy)phenyl)ethynyl)phenyl)propan-2-yl)acetamide], with 220 nM.
As to `CC(=O)NC(C)Cc1ccc(C#Cc2ccc(OC3CCCC3)cc2)cc1` (centres unmarked) [Example 9.2], the IC50 was 100 nM.
Then `CCCCOc1ccc(C#Cc2ccc(CC(C)NC(C)=O)cc2)cc1` (centres unmarked) [Example 9.3], with 90 nM; and `COCCOc1ccc(C#Cc2ccc(CC(C)NC(C)=O)cc2)cc1` (centres unmarked) [Example 9.4], with 610 nM.
`CC(=O)NC(C)Cc1ccc(C#Cc2ccc(OCCN3CCCCC3)cc2)cc1` (centres unmarked) [Example 9.5] yielded an IC50 of 22100 nM.
In turn, `CC(=O)NC(C)Cc1ccc(C#Cc2ccc(OCCN3CCOCC3)cc2)cc1` (centres unmarked) [Example 9.6] had an IC50 of 9400 nM.
`CC(=O)NC(C)Cc1ccc(C#Cc2ccc(OC3CCN(C)C3)cc2)cc1` (centres unmarked) [Example 9.7]: the IC50 is 1900 nM.
In the case of `CCC(CC)Oc1cccc(C#Cc2ccc(CC(C)NC(C)=O)cc2)c1` (centres unmarked) [Example 9.8], 810 nM corresponded to half-maximal inhibition (IC50).
Then `CC(=O)NC(C)Cc1ccc(C#Cc2cccc(OCCN3CCCCC3)c2)cc1` (centres unmarked) [Example 9.9], with 9200 nM.
The same measure for `CC(=O)NC(C)Cc1ccc(C#Cc2ccc(OC3CNC3)cc2)cc1` (centres unmarked) [Example 9.10]: 12200 nM; for `CC(=O)NC(C)Cc1ccc(C#Cc2ccc(OCC3(C)CC3)cc2)cc1` (centres unmarked) [Example 9.11]: 180 nM; for `CC(=O)NC(C)Cc1ccc(C#Cc2ccc(OC3CCOCC3)cc2)cc1` (centres unmarked) [Example 9.12]: 160 nM.
`COCCCOc1cccc(C#Cc2ccc(CC(C)NC(C)=O)cc2)c1` (centres unmarked) [Example 9.13] returned an IC50 of 630 nM.
Compound `CC(=O)NC(C)Cc1ccc(C#Cc2cccc(OCc3cn(C)cn3)c2)cc1` (centres unmarked) [Example 9.14] gave an IC50 of 1600 nM.
Consider `CC(=O)NC(C)Cc1ccc(C#Cc2cccc(OCc3c[nH]cn3)c2)cc1` (centres unmarked) [Example 9.15], for which the IC50 was 2100 nM.
`CC(=O)NC(C)Cc1ccc(C#Cc2ccc(OCc3ccco3)cc2)cc1` (centres unmarked) [Example 9.16]: the IC50 stood at 260 nM.
`CC(=O)NC(C)Cc1ccc(C#Cc2ccc(OCC3CCCCO3)cc2)cc1` (centres unmarked) [Example 9.17] showed an IC50 of 610 nM.
In turn, `CCN(CC)CCOc1ccc(C#Cc2ccc(CC(C)NC(C)=O)cc2)cc1` (centres unmarked) [Example 9.18] had a half-maximal inhibitory concentration (IC50) of 14900 nM.
Then `CCOCCOc1ccc(C#Cc2ccc(CC(C)NC(C)=O)cc2)cc1` (centres unmarked) [Example 9.19], with 280 nM; and `CC(=O)NC(C)Cc1ccc(C#Cc2ccc(OCC3CC3)cc2)cc1` (centres unmarked) [Example 9.20], with 80 nM.
Then `CC(=O)NC(C)Cc1ccc(C#Cc2ccc(OCCC3CC3)cc2)cc1` (centres unmarked) [Example 9.21], with 60 nM.
The compound `CC(=O)NC(C)Cc1ccc(C#Cc2ccc(OCC(F)F)cc2)cc1` (centres unmarked) [Example 9.22] showed an IC50 of 240 nM.
In the case of `CC(=O)NC(C)Cc1ccc(C#Cc2ccc(OCCc3ccncc3)cc2)cc1` (centres unmarked) [Example 9.23], inhibition was half-maximal at 400 nM (IC50).
Then `CC(=O)NC(C)Cc1ccc(C#Cc2ccc(OCC3CC3C)cc2)cc1` (centres unmarked) [Example 9.24], with 200 nM.
In turn, `CC(=O)NC(C)Cc1ccc(C#Cc2ccc(OC(C)c3ccncc3)cc2)cc1` (centres unmarked) [Example 9.25] had an IC50 of 2500 nM.
The same measure for `CC(=O)NC(C)Cc1ccc(C#Cc2ccc(OCc3ccoc3)cc2)cc1` (centres unmarked) [Example 9.26]: 250 nM; for `CC(=O)NC(C)Cc1ccc(C#Cc2ccc(OCc3cc(C)on3)cc2)cc1` (centres unmarked) [Example 9.27]: 640 nM.
In turn, `CC(=O)NC(C)Cc1ccc(C#Cc2ccc(OCc3cncs3)cc2)cc1` (centres unmarked) [Example 9.28] yielded an IC50 of 690 nM.
Consider `CC(=O)NC(C)Cc1ccc(C#Cc2ccc(OC3CCCOC3)cc2)cc1` (centres unmarked) [Example 9.29], for which the IC50 stood at 190 nM.
In turn, `COCCCOc1ccc(C#Cc2ccc(CC(C)NC(C)=O)cc2)cc1` (centres unmarked) [Example 9.30] came in with an IC50 of 230 nM.
The same measure for `CC(=O)NC(C)Cc1ccc(C#Cc2ccc(OCC3CCOCC3)cc2)cc1` (centres unmarked) [Example 9.31]: 550 nM; for `CC(=O)NC(C)Cc1ccc(C#Cc2ccc(OCCC(F)(F)F)cc2)cc1` (centres unmarked) [Example 9.32]: 100 nM; for `CC(=O)NC(C)Cc1ccc(C#Cc2ccc(OCC3(C)COC3)cc2)cc1` (centres unmarked) [Example 9.33]: 340 nM.
Then `COCCn1cncc1COc1ccc(C#Cc2ccc(CC(C)NC(C)=O)cc2)cc1` (centres unmarked) [Example 9.34], with 6400 nM.
Turning to `CCC(COC)Oc1ccc(C#Cc2ccc(CC(C)NC(C)=O)cc2)cc1` (centres unmarked) [Example 9.35], it took 660 nM to reach half-maximal inhibition (IC50).
The same measure for `CC(=O)NC(C)Cc1ccc(C#Cc2ccc(OCCc3cn[nH]c3)cc2)cc1` (centres unmarked) [Example 9.36]: 420 nM; for `CC(=O)NC(C)Cc1ccc(C#Cc2ccc(OCCn3ccnc3)cc2)cc1` (centres unmarked) [Example 9.37]: 520 nM.
The same measure for `CC(=O)NC(C)Cc1ccc(C#Cc2ccc(OCc3c[nH]cn3)cc2)cc1` (centres unmarked) [Example 9.38]: 2600 nM.
Consider `CC(=O)NC(C)Cc1ccc(C#Cc2ccc(OCC(C)F)cc2)cc1` (centres unmarked) [Example 9.39], for which inhibition was half-maximal at 180 nM (IC50).
Then `CC(=O)NC(C)Cc1ccc(C#Cc2ccc(OCC3CC3(F)F)cc2)cc1` (centres unmarked) [Example 9.40], with 50 nM; and `CC(=O)NC(C)Cc1ccc(C#Cc2ccc(OCc3cnco3)cc2)cc1` (centres unmarked) [Example 9.41], with 500 nM.
Then `CC(=O)NC(C)Cc1ccc(C#Cc2ccc(OCc3cccnc3)cc2)cc1` (centres unmarked) [Example 9.42], with 630 nM; and `CC(=O)NC(C)Cc1ccc(C#Cc2ccc(Oc3cncnc3)cc2)cc1` (centres unmarked) [Example 10.1, N-(1-(4-((4-(Pyrimidin-5-yloxy)phenyl)ethynyl)phenyl)propan-2-yl)acetamide], with 190 nM; and `CC(=O)NC(C)Cc1ccc(C#Cc2ccc(Oc3ccncc3)cc2)cc1` (centres unmarked) [Example 10.2], with 1200 nM.
For `CC(=O)NC(C)Cc1ccc(C#Cc2cccc(Oc3cncnc3)c2)cc1` (centres unmarked) [Example 10.3], inhibition was half-maximal at 1800 nM (IC50).
`COCCN(C)c1nccc(C#Cc2ccc(CC(C)NC(C)=O)cc2)n1` (centres unmarked) [Example 11.1, N-(1-(4-((2-((2-Methoxyethyl)(methyl)amino)pyrimidin-4-yl)ethynyl)phenyl)propan-2-yl)acetamide] yielded an IC50 of 1200 nM.
`CC(=O)NC(C)Cc1ccc(C#Cc2ccnc(N(C)Cc3ccncc3)n2)cc1` (centres unmarked) [Example 11.2] came in with an IC50 of 30000 nM.
With `CCCNc1nccc(C#Cc2ccc(CC(C)NC(C)=O)cc2)n1` (centres unmarked) [Example 11.3], the IC50 was found to be 2300 nM.
`CCN(C)c1nccc(C#Cc2ccc(CC(C)NC(C)=O)cc2)n1` (centres unmarked) [Example 11.4] showed an IC50 of 530 nM.
Then `COc1ccc(Nc2nccc(C#Cc3ccc(CC(C)NC(C)=O)cc3)n2)cn1` (centres unmarked) [Example 11.5], with 7200 nM.
In turn, `CC(=O)NC(C)Cc1ccc(C#Cc2ccnc(N(C)c3ccccc3)n2)cc1` (centres unmarked) [Example 11.6] yielded an IC50 of 930 nM.
`CC(=O)NC(C)Cc1ccc(C#Cc2ccnc(NC(C)C)n2)cc1` (centres unmarked) [Example 11.7] registered an IC50 of 12700 nM.
The same measure for `CC(=O)NC(C)Cc1ccc(C#Cc2ccnc(N(C)C(C)C)n2)cc1` (centres unmarked) [Example 11.8]: 750 nM.
The same measure for `CC(=O)NC(C)Cc1ccc(C#Cc2ccnc(N(C)C3CCC(O)CC3)n2)cc1` (centres unmarked) [Example 11.9]: 4000 nM.

As usually defined, the IC50 is the point on the concentration scale where inhibition reaches its midpoint.
